Data on five compounds can be found in patent US20260144753A1, “MULTIVALENT IONIZABLE LIPID DELIVERY SYSTEMS” (Factor Bioscience Inc., priority 2023, published 2026).

Molecules are shown by their SMILES. “Also recorded” adds a separate entry of the source. Like-named read-outs stand apart in the source and are kept apart here.

A short description of series [1]: Encapsulation efficiency of LNPs, RiboGreen assay. In kind it is physicochemical. The following applies: for average encapsulation efficiency (%): RiboGreen. How it is done:
LNPs were formulated through bulk mixing using a molar ratio of 50:38.5:10:1.5 (ionizable lipid/cholesterol/DSPC/DMG-PEG2000) and a 0.067 weight ratio of mRNA to ionizable lipid. Lipoplexes were formulated at various weight ratios of lipid:mRNA, and mRNA loading efficiency was determined via gel electrophoresis. […] Encapsulation efficiency of LNPs was measured using a RiboGreen assay.

The subject of series [2] is THP-1 human monocyte cell line. Put plainly: THP-1 monocyte transfection efficiency, GFP mRNA lipoplexes and LNPs, flow cytometry. In kind it is cell-based. The following applies: for in vitro transfection efficiency, LNP form (in words): LNPs; for transfection efficiency in lipoplex screen (in words): Family D lipoplexes, lipid:mRNA weight ratio of 2:1, THP-1. How it is done: LNPs were formulated through bulk mixing using a molar ratio of 50:38.5:10:1.5 (ionizable lipid/cholesterol/DSPC/DMG-PEG2000) and a 0.067 weight ratio of mRNA to ionizable lipid. Lipoplexes were formulated at various weight ratios of lipid:mRNA, and mRNA loading efficiency was determined via gel electrophoresis.
To evaluate transfection efficiency and cytotoxicity, THP-1 monocytes and Jurkat T cells were transfected with lipoplexes and lipid nanoparticles.
Density plots are shown of GFP+ transfected cells from doses of 2000 ng RNA per 120,000 cells for each formulation.
These 5 lipids are all in the Family D with a spermine headgroup and bis 2-hexyldecanoate tails. Lipids are listed in order of increasing carbon spacer link length. Lipoplexes were created using a lipid:mRNA weight ratio of 2:1 for each formulation.
The measured diameter of the Compound XVI lipoplexes was 359 nm. Compound XVI also functioned effectively as a solid LNP when using a molar ratio of 50:38.5:10:1.5 (ionizable lipid/cholesterol/DSPC/DMG-PEG2000) and a 0.12 weight ratio of mRNA to ionizable lipid. […] The ability to efficiently target blood cells using lipid delivery systems opens the door to a variety of applications, including potent in vivo mRNA delivery and cell reprogramming. […]
Background: A flow cytometer gives signals particle by particle.

A further series concerns THP-1 monocytes. The experiment in a line: Viability of THP-1 monocytes after transfection, Cell Titer Glo. Type of series: cell-based, human. As to the method: Relative viability was determined using a Cell Titer Glo viability assay and calculating viability relative to untransfected cells.
(ATP-based viability assays read luminescence as a measure of living cells.)

Series [3] in a line: Dynamic light scattering, hydrodynamic diameter of the nanoparticles. Type of series: physicochemical. How it is done:
[…] Lipoplexes were formulated at various weight ratios of lipid:mRNA, and mRNA loading efficiency was determined via gel electrophoresis. […] Dynamic light scattering (DLS) was used to determine hydrodynamic diameter of the nanoparticles, graphed as number particle size distribution. Polydispersity index (PDI) was also measured.

A short description of series [4]: Zeta potential of nanoparticle formulation. In kind it is physicochemical. The following applies: LNPs, at a pH of 7.0.
Another series concerns Jurkat T cells. The experiment in a line: Jurkat T cell transfection efficiency of lipoplex formulations, flow cytometry. Type of series: cell-based. The settings on record: lipoplexes, 100 ng RNA per 100,000 cells, compared to other lipids in Family D. As to the method:
To evaluate transfection efficiency and cytotoxicity, THP-1 monocytes and Jurkat T cells were transfected with lipoplexes and lipid nanoparticles. […] A screen of 4 lipoplex formulations was analyzed using flow cytometry for doses of 100 ng RNA per 100,000 cells.

For a further series, the system named is HEKn cells. Put plainly: LNP transfection efficacy in HEKn cells, mean GFP fluorescence intensity. Type of series: cell-based. The settings on record: increasing amounts of mRNA. As to the method:
Experiments were conducted to characterize LNP transfection efficacy of Compound XXXV in HEKn cells. A performance comparison was run between control (ToRNAdo lipoplex) and test subject Compound XXXV LNP with increasing amounts of mRNA, with other variables held constant. […] Mean GFP fluorescence intensity was calculated using Operetta® Harmony software. […] An experiment was conducted to characterize lipoplex efficiency in Jurkat cells. A performance comparison was run between control (Lipofectamine 3000) and spermine bis hexyldecanoate ionizable lipid compounds with varying tether length (3-7). Lipid:mRNA weight ratios were optimized for each lipid as determined by gel electrophoresis (Compound XX (2:1), Compound XXVIII (2.5:1), Compound XIX (1:2), Compound XVI (2.5:1), Compound XXIV (1:1)). […] The bottom panels (“Neg.”) of FIG. 57 depict negative control experiments wherein no RNA was delivered.

The subject of the next series is rat dermal tissue. The experiment in a line: Intradermal injection of lipid-complexed GFP mRNA in rats. In kind it is in vivo. The settings on record: 2000 ng GFP mRNA, 48 hours. How it is done:
In this Example, in vivo experiments were carried out in rats to investigate the transfection and expression efficiency of RNA complexed with the lipids of the present disclosure.
2000 ng of DLinDHS-complexed GFP mRNA was administered to rats by intradermal injection. After 48 hours, the injection site was fixed and stained (anti-rabbit GFP).

As for `CCCCC/C=C\C/C=C\CCCCCCCCC(CCCCCCCC/C=C\C/C=C\CCCCC)OC(=O)CCCN(C)C` [DLin-MC3-DMA, reference compound], in series [1], the “average encapsulation efficiency (%)” value was found to be 61.7%. Further, in series [2] (GFP mRNA, THP-1), the “in vitro transfection efficiency, LNP form (in words)” value is listed as “low transfection efficiency”. Also, in the series on THP-1 monocytes (LNPs and lipoplexes (FIG. 10)), the “toxicity, viability of THP-1 monocytes after transfection (in words)” value is on record as “very little toxicity”.

As to `CCCCCCCCC(CCCCCC)C(=O)OCCCCCCN(CCCN)CCCCN(CCCN)CCCCCCOC(=O)C(CCCCCC)CCCCCCCC` (stereo not drawn) [Compound XVI, (butane-1,4-diylbis((3-aminopropyl)azanediyl))bis(hexane-6,1-diyl) bis(2-hexyldecanoate)], the “measured diameter of the lipoplexes” value in series [3] (lipoplexes) was 359 nm. Besides, in series [3] (solid LNP, molar ratio 50:38.5:10:1.5 (ionizable lipid/cholesterol/DSPC/DMG-PEG2000), 0.12 weight ratio of mRNA to ionizable lipid), the “diameter of LNPs” value amounted to 170 nm. Further, in series [1], the “encapsulation efficiency of LNPs (in words)” value is “near complete encapsulation efficiency; also recorded: greater encapsulation of mRNA” and the “average encapsulation efficiency (%)” value is 87.0%. Moreover, in series [2], the “transfection efficiency in lipoplex screen (in words)” value is reported as “greatest transfection efficiency”. Besides, the “in vitro transfection efficiency, LNP form (in words)” value in series [2] (GFP mRNA, THP-1) is given as “greater in vitro transfection efficiency than the clinically used Dlin-MC3-DMA LNPs; also recorded: greater in vitro transfection efficiency of THP-1 monocytes than commercially-available controls”. Further, in series [2] (lipoplexes, GFP mRNA, THP-1), the “half-maximal effective concentration (EC50)” value is 147 ng RNA per 50,000 cells and the “in vitro transfection efficiency, lipoplex form (in words)” value is given as “greatest transfection efficiency; also recorded: greater in vitro transfection efficiency of THP-1 monocytes than commercially-available controls”. Also, the surface charge entry in series [4] was “+3.6 mV”. In the series on THP-1 monocytes, the “toxicity, viability of THP-1 monocytes after transfection (in words)” value is reported as “significantly greater toxicity than respective Compound XVI lipoplexes”. Also, the “transfection in the Jurkat T cell line (in words)” value in the series with Jurkat T cells was “greatest transfection”.

Take `CCCCCCCCC(CCCCCC)C(=O)OCCCCCCN(CCCCN(CCCCCCOC(=O)C(CCCCCC)CCCCCCCC)CC(O)CN)CC(O)CN` (stereo not drawn) [Compound XXXV, (butane-1,4-diylbis((3-amino-2-hydroxypropyl)azanediyl))bis(hexane-6,1-diyl) bis(2-hexyldecanoate)]: in the series with HEKn cells, the “LNP transfection into HEKn cells, mean GFP fluorescence intensity (in words)” value is “successful transfection into HEKn cells with diminishing returns as mRNA dosage increased”.

For `CCCCC/C=C\C/C=C\CCCCCCCCN(CCCCN(CCCCCCCC/C=C\C/C=C\CCCCC)CC(O)CN)CC(O)CN` (stereo not drawn) [DLinDHS, N^1,N^4-dilinoleyl-N^1,N^4-di-(2-hydroxy-3-aminopropyl)-diaminobutane], in the series with rat dermal tissue, the “GFP reporter expression after intradermal injection (in words)” value is on record as “localized expression in the dermal layer”.

For `CCCCCCCCC(CCCCCC)C(=O)OCCCCCN(CCCN)CCCCN(CCCN)CCCCCOC(=O)C(CCCCCC)CCCCCCCC` (stereo not drawn) [Compound XIX], the “transfection efficiency in lipoplex screen (in words)” value in series [2] is recorded as “greatest transfection efficiency”. Further, the “toxicity, relative viability of THP-1 monocytes after transfection (in words)” value in the series with THP-1 monocytes was “greatest toxicity”.
